Measured values reported in patent US20260297081A1, “COMPOUNDS AND METHODS OF TREATING CANCERS” (Cullgen Inc., priority 2023, published 2026).

Target: CDK4 (Homo sapiens, UniProt P11802+Q16531)
Assay: CDK4 percentage degradation in Calu-1 cells (Table 6)
Assay type: cell-based
Design: Cells that express cyclin D1-3 and CDK4/6 proteins were treated with heterobifunctional compounds; endogenous in cells; host or cells: Calu-1
Details: 16 hours; for inhibition at 0.04 µM: 40 nM; for inhibition at 0.2 µM: 200 nM
Method in brief: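 Percentage degradation of Cyclin D1 and CDK4 derived from densitometry of ECL Western blots on lysates of Calu-1 cells. Treatment was 16 h with compound at either 40 nM or 200 nM.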

CDK4, sequence (P11802 2-303 limits assumed): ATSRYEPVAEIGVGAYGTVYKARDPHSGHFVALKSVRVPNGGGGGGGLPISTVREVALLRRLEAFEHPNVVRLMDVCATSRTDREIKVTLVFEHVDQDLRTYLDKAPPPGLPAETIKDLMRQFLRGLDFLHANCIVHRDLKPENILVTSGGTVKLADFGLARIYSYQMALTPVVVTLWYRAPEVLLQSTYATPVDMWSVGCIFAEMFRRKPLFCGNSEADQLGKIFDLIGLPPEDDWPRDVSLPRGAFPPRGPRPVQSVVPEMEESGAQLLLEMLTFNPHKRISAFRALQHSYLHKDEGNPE
CDK4, sequence (P24385 whole entry partner): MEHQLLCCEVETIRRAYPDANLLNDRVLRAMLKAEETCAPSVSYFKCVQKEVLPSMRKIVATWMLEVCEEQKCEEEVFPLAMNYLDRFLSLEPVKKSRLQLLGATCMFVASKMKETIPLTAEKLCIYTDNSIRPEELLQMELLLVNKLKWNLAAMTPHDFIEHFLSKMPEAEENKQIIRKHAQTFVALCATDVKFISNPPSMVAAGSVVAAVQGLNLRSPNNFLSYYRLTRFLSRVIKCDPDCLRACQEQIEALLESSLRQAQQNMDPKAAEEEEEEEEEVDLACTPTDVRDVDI
CDK4, sequence (Q16531 2-1140 limits assumed): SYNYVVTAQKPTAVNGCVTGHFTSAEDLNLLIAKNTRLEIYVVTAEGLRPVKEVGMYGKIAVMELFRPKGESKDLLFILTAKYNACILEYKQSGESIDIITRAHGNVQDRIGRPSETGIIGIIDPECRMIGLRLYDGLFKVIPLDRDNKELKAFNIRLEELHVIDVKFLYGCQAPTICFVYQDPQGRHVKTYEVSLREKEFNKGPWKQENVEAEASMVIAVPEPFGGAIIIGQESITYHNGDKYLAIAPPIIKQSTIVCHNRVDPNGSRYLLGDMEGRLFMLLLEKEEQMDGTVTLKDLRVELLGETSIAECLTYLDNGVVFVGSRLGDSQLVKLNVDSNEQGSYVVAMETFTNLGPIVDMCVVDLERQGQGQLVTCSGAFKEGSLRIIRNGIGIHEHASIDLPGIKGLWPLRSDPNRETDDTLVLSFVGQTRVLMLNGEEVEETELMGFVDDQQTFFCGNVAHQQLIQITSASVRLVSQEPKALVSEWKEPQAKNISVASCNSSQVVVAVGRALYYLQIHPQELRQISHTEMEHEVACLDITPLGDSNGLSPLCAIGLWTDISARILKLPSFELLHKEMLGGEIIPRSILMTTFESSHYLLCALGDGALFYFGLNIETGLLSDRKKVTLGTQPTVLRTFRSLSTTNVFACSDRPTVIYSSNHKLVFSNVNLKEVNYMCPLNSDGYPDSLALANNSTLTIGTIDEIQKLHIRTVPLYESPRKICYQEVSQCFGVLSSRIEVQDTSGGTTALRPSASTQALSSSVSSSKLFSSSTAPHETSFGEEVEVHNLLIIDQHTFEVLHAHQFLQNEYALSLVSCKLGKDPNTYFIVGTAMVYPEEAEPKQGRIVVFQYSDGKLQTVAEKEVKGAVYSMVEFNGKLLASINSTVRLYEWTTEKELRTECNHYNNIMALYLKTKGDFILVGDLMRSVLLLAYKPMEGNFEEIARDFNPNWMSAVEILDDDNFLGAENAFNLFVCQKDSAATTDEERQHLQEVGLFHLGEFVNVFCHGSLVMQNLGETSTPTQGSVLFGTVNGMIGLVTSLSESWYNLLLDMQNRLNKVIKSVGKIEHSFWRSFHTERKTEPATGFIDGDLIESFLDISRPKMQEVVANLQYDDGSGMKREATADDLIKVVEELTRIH

inhibition at 0.04 µM [%] | inhibition at 0.2 µM [%] | Compound
< 30 | < 30 | CNc1ccc(C(=O)Nc2ccc(Cl)c(C3CC3)n2)c(NCCCCCNC(=O)CN2CCN(c3ccc(Nc4ncc5c(C)c(C(C)=O)c(=O)n(C6CCCC6)c5n4)nc3)CC2)n1 [CPD-112, 2-((5-(2-(4-(6-((6-Acetyl-8-cyclopentyl-5-methyl-7-oxo-7,8-dihydropyrido[2,3-d]pyrimidin-2-yl)amino)pyridin-3-yl)piperazin-1-yl)acetamido)pentyl)amino)-N-(5-chloro-6-cyclopropylpyridin-2-yl)-6-(methylamino)nicotinamide]
30 to 50 | 50 to 80 | CNc1ccc(C(=O)Nc2ccc(F)c(C3CC3)n2)c(NCCCCCNC(=O)CN2CCN(c3ccc(Nc4ncc5c(C)c(C(C)=O)c(=O)n(C6CCCC6)c5n4)nc3)CC2)n1 [CPD-113, 2-((5-(2-(4-(6-((6-Acetyl-8-cyclopentyl-5-methyl-7-oxo-7,8-dihydropyrido[2,3-d]pyrimidin-2-yl)amino)pyridin-3-yl)piperazin-1-yl)acetamido)pentyl)amino)-N-(6-cyclopropyl-5-fluoropyridin-2-yl)-6-(methylamino)nicotinamide]
< 30 | < 30 | CNc1ccc(C(=O)Nc2nc(C3CC3)ccc2F)c(NC2CC3(CC(NC(=O)CN4CCN(c5ccc(Nc6ncc7c(C)c(C(C)=O)c(=O)n(C8CCCC8)c7n6)nc5)CC4)C3)C2)n1 (centres unmarked) [CPD-114, 2-((6-(2-(4-(6-((6-Acetyl-8-cyclopentyl-5-methyl-7-oxo-7,8-dihydropyrido[2,3-d]pyrimidin-2-yl)amino)pyridin-3-yl)piperazin-1-yl)acetamido)spiro[3.3]heptan-2-yl)amino)-N-(6-cyclopropyl-3-fluoropyridin-2-yl)-6-(methylamino)nicotinamide]
50 to 80 | 50 to 80 | CNc1ccc(C(=O)Nc2ccc(N(C)C)nn2)c(NC2CC3(C2)CN(C(=O)C(C)(C)CN2CCN(c4ccc(Nc5ncc6c(C)c(C(C)=O)c(=O)n(C7CCCC7)c6n5)nc4)CC2)C3)n1 [CPD-118, 2-((2-(3-(4-(6-((6-Acetyl-8-cyclopentyl-5-methyl-7-oxo-7,8-dihydropyrido[2,3-d]pyrimidin-2-yl)amino)pyridin-3-yl)piperazin-1-yl)-2,2-dimethylpropanoyl)-2-azaspiro[3.3]heptan-6-yl)amino)-N-(6-(dimethylamino)pyridazin-3-yl)-6-(methylamino)nicotinamide]
< 30 | 30 to 50 | CC(=O)c1c(C)c2cnc(Nc3ccc(N4CCN(CC(=O)NC5CC6(C5)CC(Nc5nc(C(F)(F)F)ccc5C(=O)Nc5cccc(C7CC7)n5)C6)CC4)cn3)nc2n(C2CCCC2)c1=O (centres unmarked) [CPD-121, 2-((6-(2-(4-(6-((6-Acetyl-8-cyclopentyl-5-methyl-7-oxo-7,8-dihydropyrido[2,3-d]pyrimidin-2-yl)amino)pyridin-3-yl)piperazin-1-yl)acetamido)spiro[3.3]heptan-2-yl)amino)-N-(6-cyclopropylpyridin-2-yl)-6-(trifluoromethyl)nicotinamide]
30 to 50 | 50 to 80 | CNc1ccc(C(=O)Nc2cccc(=O)[nH]2)c(NC2CC3(CC(NC(=O)CN4CCN(c5ccc(Nc6ncc7c(C)c(C(C)=O)c(=O)n(C8CCCC8)c7n6)nc5)CC4)C3)C2)n1 (centres unmarked) [CPD-122, 2-((6-(2-(4-(6-((6-Acetyl-8-cyclopentyl-5-methyl-7-oxo-7,8-dihydropyrido[2,3-d]pyrimidin-2-yl)amino)pyridin-3-yl)piperazin-1-yl)acetamido)spiro[3.3]heptan-2-yl)amino)-6-(methylamino)-N-(6-oxo-1,6-dihydropyridin-2-yl)nicotinamide]
< 30 | 50 to 80 | CNc1ccc(C(=O)Nc2ccc(C)c(=O)[nH]2)c(NCCCCCNC(=O)CN2CCN(c3ccc(Nc4ncc5c(C)c(C(C)=O)c(=O)n(C6CCCC6)c5n4)nc3)CC2)n1 [CPD-123, 2-((5-(2-(4-(6-((6-Acetyl-8-cyclopentyl-5-methyl-7-oxo-7,8-dihydropyrido[2,3-d]pyrimidin-2-yl)amino)pyridin-3-yl)piperazin-1-yl)acetamido)pentyl)amino)-N-(5-methyl-6-oxo-1,6-dihydropyridin-2-yl)-6-(methylamino)nicotinamide]
30 to 50 | 30 to 50 | CCc1ccc(C(=O)Nc2cccc(C3CC3)n2)c(NC2CC3(CC(NC(=O)CN4CCN(c5ccc(Nc6ncc7c(C)c(C(C)=O)c(=O)n(C8CCCC8)c7n6)nc5)CC4)C3)C2)n1 (centres unmarked) [CPD-124, 2-((6-(2-(4-(6-((6-Acetyl-8-cyclopentyl-5-methyl-7-oxo-7,8-dihydropyrido[2,3-d]pyrimidin-2-yl)amino)pyridin-3-yl)piperazin-1-yl)acetamido)spiro[3.3]heptan-2-yl)amino)-N-(6-cyclopropylpyridin-2-yl)-6-ethylnicotinamide]
< 30 | < 30 | CNc1ccc(C(=O)Nc2cc(C(F)(F)F)n(C)n2)c(NC2CC3(CC(NC(=O)CN4CCN(c5ccc(Nc6ncc7c(C)c(C(C)=O)c(=O)n(C8CCCC8)c7n6)nc5)CC4)C3)C2)n1 (centres unmarked) [CPD-127, 2-((6-(2-(4-(6-((6-Acetyl-8-cyclopentyl-5-methyl-7-oxo-7,8-dihydropyrido[2,3-d]pyrimidin-2-yl)amino)pyridin-3-yl)piperazin-1-yl)acetamido)spiro[3.3]heptan-2-yl)amino)-N-(1-methyl-5-(trifluoromethyl)-1H-pyrazol-3-yl)-6-(methylamino)nicotinamide]

Further lines, the compound ahead of its results:

Compound | inhibition at 0.04 µM [%] | inhibition at 0.2 µM [%]
CNc1ccc(C(=O)Nc2ccc(C)c(OC)n2)c(NCCCCCNC(=O)CN2CCN(c3ccc(Nc4ncc5c(C)c(C(C)=O)c(=O)n(C6CCCC6)c5n4)nc3)CC2)n1 [CPD-116, 2-((5-(2-(4-(6-((6-Acetyl-8-cyclopentyl-5-methyl-7-oxo-7,8-dihydropyrido[2,3-d]pyrimidin-2-yl)amino)pyridin-3-yl)piperazin-1-yl)acetamido)pentyl)amino)-N-(6-methoxy-5-methylpyridin-2-yl)-6-(methylamino)nicotinamide] | 30 to 50 | 30 to 50
CNc1ccc(C(=O)Nc2ccc(N(C)C)nn2)c(NC2CC3(C2)CN(C(=O)C(C)CN2CCN(c4ccc(Nc5ncc6c(C)c(C(C)=O)c(=O)n(C7CCCC7)c6n5)nc4)CC2)C3)n1 (centres unmarked) [CPD-117, 2-((2-(3-(4-(6-((6-Acetyl-8-cyclopentyl-5-methyl-7-oxo-7,8-dihydropyrido[2,3-d]pyrimidin-2-yl)amino)pyridin-3-yl)piperazin-1-yl)-2-methylpropanoyl)-2-azaspiro[3.3]heptan-6-yl)amino)-N-(6-(dimethylamino)pyridazin-3-yl)-6-(methylamino)nicotinamide] | 50 to 80 | 50 to 80
CC(=O)c1c(C)c2cnc(Nc3ccc(N4CCN(CC(=O)NC5CC6(C5)CC(Nc5nc(C(C)C)ccc5C(=O)Nc5cccc(C7CC7)n5)C6)CC4)cn3)nc2n(C2CCCC2)c1=O (centres unmarked) [CPD-119, 2-((6-(2-(4-(6-((6-Acetyl-8-cyclopentyl-5-methyl-7-oxo-7,8-dihydropyrido[2,3-d]pyrimidin-2-yl)amino)pyridin-3-yl)piperazin-1-yl)acetamido)spiro[3.3]heptan-2-yl)amino)-N-(6-cyclopropylpyridin-2-yl)-6-isopropylnicotinamide] | < 30 | 30 to 50
CC(=O)c1c(C)c2cnc(Nc3ccc(N4CCN(CC(=O)NC5CC6(C5)CC(Nc5nc(C)ccc5C(=O)Nc5cccc(C7CC7)n5)C6)CC4)cn3)nc2n(C2CCCC2)c1=O (centres unmarked) [CPD-120, 2-((6-(2-(4-(6-((6-Acetyl-8-cyclopentyl-5-methyl-7-oxo-7,8-dihydropyrido[2,3-d]pyrimidin-2-yl)amino)pyridin-3-yl)piperazin-1-yl)acetamido)spiro[3.3]heptan-2-yl)amino)-N-(6-cyclopropylpyridin-2-yl)-6-methylnicotinamide] | < 30 | 30 to 50
CNc1ccc(C(=O)Nc2ccc(OC)c(C3CC3)n2)c(NC2CC3(CC(NC(=O)CN4CCN(c5ccc(Nc6ncc7c(C)c(C(C)=O)c(=O)n(C8CCCC8)c7n6)nc5)CC4)C3)C2)n1 (centres unmarked) [CPD-125, 2-((6-(2-(4-(6-((6-Acetyl-8-cyclopentyl-5-methyl-7-oxo-7,8-dihydropyrido[2,3-d]pyrimidin-2-yl)amino)pyridin-3-yl)piperazin-1-yl)acetamido)spiro[3.3]heptan-2-yl)amino)-N-(6-cyclopropyl-5-methoxypyridin-2-yl)-6-(methylamino)nicotinamide] | 30 to 50 | 30 to 50
CNc1ccc(C(=O)Nc2cccc(C)n2)c(NC[C@H]2CC[C@H](NC(=O)CN3CCN(c4ccc(Nc5ncc6c(C)c(C(C)=O)c(=O)n(C7CCCC7)c6n5)nc4)CC3)CC2)n1 [CPD-126, 2-(((trans-4-(2-(4-(6-((6-Acetyl-8-cyclopentyl-5-methyl-7-oxo-7,8-dihydropyrido[2,3-d]pyrimidin-2-yl)amino)pyridin-3-yl)piperazin-1-yl)acetamido)cyclohexyl)methyl)amino)-6-(methylamino)-N-(6-methylpyridin-2-yl)nicotinamide] | < 30 | 50 to 80
CNc1ccc(C(=O)Nc2ccc(F)c(C3CC3)n2)c(NC2CC3(CC(NC(=O)CN4CCN(c5ccc(Nc6ncc7c(C)c(C(C)=O)c(=O)n(C8CCCC8)c7n6)nc5)CC4)C3)C2)n1 (centres unmarked) [CPD-128, 2-((6-(2-(4-(6-((6-Acetyl-8-cyclopentyl-5-methyl-7-oxo-7,8-dihydropyrido[2,3-d]pyrimidin-2-yl)amino)pyridin-3-yl)piperazin-1-yl)acetamido)spiro[3.3]heptan-2-yl)amino)-N-(6-cyclopropyl-5-fluoropyridin-2-yl)-6-(methylamino)nicotinamide] | 50 to 80 | 50 to 80
